Test results published in patent US20220364132A1, “METHOD FOR FORMING A STORAGE STABLE H[…] A LIGNO[…]” (Sekab E- Technology AB, priority 2019, published 2022).

Legend:
Type in all cases: cell-based
lactic acid bacteria = test: Bacterial contamination in a sugar-rich hydrolysate (synthetic media), glucose and lactic acid by HPLC; conditions: 5, 10, 20 and 40 mM, room temperature, 11 days, FIG. 3
Description: The aim of this experiment was to test the potential of sodium sulfite to control bacterial contamination in the storage tanks which contain sugar-rich hydrolysate streams before they are used in fermentations. The hydrolysate is representative of a hydrolysate according to the present disclosure.
(§1) To test the theory, synthetic media was made containing about 90 g/l glucose, 0.5% sodium phosphate/phosphoric acid buffer (pH 5.5), 0.5 g/l diammonium phosphate, 2 g/l yeast extract and 2 g/l peptone. This solution (45 ml) was added to 50 ml serum bottles, along with a magnetic stirrer bar, and autoclaved, where after sodium sulfite at concentrations of 5, 10, 20 and 40 mM was added, while some bottles had no sulfite added, which served as control (0 mM). […] This culture was incubated at 37° C. for 36 hours and used to inoculate all the serum bottles (10% v/v). The serum bottles were then sealed with an airtight septum and a metal ring clamp and two needles were inserted through the septum to allow for sampling. The serum bottles were placed on a magnetic stirrer plate at room temperature (since storage tanks are typically kept at room temperature), with stirring at 100 rpm. Samples were taken periodically and analyzed for glucose and lactic acid using HPLC. Experiments were performed in triplicate. The experiments were continued for 11 days.

Lactobacillus sp. [1] = test: Bacterial contamination in a sugar-rich hydrolysate comprising 10% non-detoxified spruce hydrolysate, glucose by HPLC
Experimental: as §1
Experiments in this example were performed according to the description in example 2 with the difference that the sugar-rich hydrolysate contained 10% (v/v) non-detoxified spruce hydrolysate. This was done to simulate sugar-rich hydrolysate with some inhibitory impurities present that may arise from insufficient separation and/or washing.
In the “Experiment A” samples, serum bottles were inoculated with Lactobacillus sp. at time 0 hours and incubated at room temperature for 21 days. Samples were taken periodically and analyzed for glucose and lactic acid (not shown here) using HPLC.
In the “Experiment B” samples, serum bottles were inoculated twice—firstly on the first day and again two weeks later, to simulate a re-infection and test the longevity of the inhibitory effect of sodium sulfite.
In Experiment “C”, the third group of serum bottles were inoculated after two weeks of storage at room temperature and inoculated with Lactobacillus (after 14 days).

Lactobacillus sp. [2] = test: Storage of a sugar-rich hydrolysate inoculated with Lactobacillus sp., glucose by HPLC
Experimental: as §1
Storage of sugar-rich hydrolysate with addition of 5-40 mM was performed in accordance with the description of example 2. In this example, the samples were prepared and handled as in example 2. In other words, the “Experiment A” samples in this example are identical to those of example 2, and these were used as a reference for the “Experiment B” and “Experiment C” samples, as well as for validating the results of example 2.
The “Experiment B” samples were inoculated with a Lactobacillus sp. at time 0 hours, and again after 336 hours. This was done to test the infection resistance of samples that were exposed to more than one culture of Lactobacillus sp; i.e. samples that were re-infected after two weeks.
The samples in “Experiment C” were stored at ambient room temperature for 2 weeks, after which Lactobacillus was added to the flasks, after 336 hours. Samples were incubated for another 7 days and a total of 21 days as for the other two experiments.

## O=S([O-])[O-].[Na+].[Na+] [sodium sulfite]
Lactic acid bacteria
  concentration of lactic acid: 0 g/L
  growth of lactic acid bacteria: inhibited the growth
Lactobacillus sp. [1]; 40 mM, hydrolysate with 10% (v/v) non-detoxified spruce hydrolysate, Experiments A-C
  effect on Lactobacillus sp. growth: antimicrobial effect
Lactobacillus sp. [1]; 5-20 mM, hydrolysate with 10% (v/v) non-detoxified spruce hydrolysate
  growth relative to sample with no sulfite (detoxification effect): grew faster
Lactobacillus sp. [1]; Experiment A, 5 mM, 0 h
  Glucose: 83.8 g/L
Lactobacillus sp. [1]; Experiment A, 5 mM, 168 h
  Glucose: 71.9 g/L
Lactobacillus sp. [1]; Experiment A, 5 mM, 336 h
  Glucose: 66.3 g/L
Lactobacillus sp. [1]; Experiment A, 5 mM, 508 h
  Glucose: 65.9 g/L
Lactobacillus sp. [1]; Experiment A, 10 mM, 0 h
  Glucose: 84.8 g/L
Lactobacillus sp. [1]; Experiment A, 10 mM, 168 h
  Glucose: 72.9 g/L
Lactobacillus sp. [1]; Experiment A, 10 mM, 336 h
  Glucose: 64.6 g/L
Lactobacillus sp. [1]; Experiment A, 10 mM, 508 h
  Glucose: 63.8 g/L
Lactobacillus sp. [1]; Experiment A, 20 mM, 0 h
  Glucose: 83.4 g/L
Lactobacillus sp. [1]; Experiment A, 20 mM, 168 h
  Glucose: 75.2 g/L
Lactobacillus sp. [1]; Experiment A, 20 mM, 336 h
  Glucose: 70.1 g/L
Lactobacillus sp. [1]; Experiment A, 20 mM, 508 h
  Glucose: 67.2 g/L
Lactobacillus sp. [1]; Experiment A, 40 mM, 0 h
  Glucose: 82.0 g/L
Lactobacillus sp. [1]; Experiment A, 40 mM, 168 h
  Glucose: 80.1 g/L
Lactobacillus sp. [1]; Experiment A, 40 mM, 336 h
  Glucose: 77.0 g/L
Lactobacillus sp. [1]; Experiment A, 40 mM, 508 h
  Glucose: 82.5 g/L
Lactobacillus sp. [1]; Experiment B, 5 mM, 0 h
  Glucose: 83.8 g/L
Lactobacillus sp. [1]; Experiment B, 5 mM, 168 h
  Glucose: 72.6 g/L
Lactobacillus sp. [1]; Experiment B, 5 mM, 336 h
  Glucose: 66.8 g/L
Lactobacillus sp. [1]; Experiment B, 5 mM, 508 h
  Glucose: 69.0 g/L
Lactobacillus sp. [1]; Experiment B, 10 mM, 0 h
  Glucose: 81.7 g/L
Lactobacillus sp. [1]; Experiment B, 10 mM, 168 h
  Glucose: 71.5 g/L
Lactobacillus sp. [1]; Experiment B, 10 mM, 336 h
  Glucose: 67.9 g/L
Lactobacillus sp. [1]; Experiment B, 10 mM, 508 h
  Glucose: 73.4 g/L
Lactobacillus sp. [1]; Experiment B, 20 mM, 0 h
  Glucose: 83.1 g/L
Lactobacillus sp. [1]; Experiment B, 20 mM, 168 h
  Glucose: 69.0 g/L
Lactobacillus sp. [1]; Experiment B, 20 mM, 336 h
  Glucose: 72.4 g/L
Lactobacillus sp. [1]; Experiment B, 20 mM, 508 h
  Glucose: 72.1 g/L
Lactobacillus sp. [1]; Experiment B, 40 mM, 0 h
  Glucose: 85.2 g/L
Lactobacillus sp. [1]; Experiment B, 40 mM, 168 h
  Glucose: 86.6 g/L
Lactobacillus sp. [1]; Experiment B, 40 mM, 336 h
  Glucose: 86.2 g/L
Lactobacillus sp. [1]; Experiment B, 40 mM, 508 h
  Glucose: 86.3 g/L
Lactobacillus sp. [1]; Experiment C, 5 mM, 0 h
  Glucose: 85.4 g/L
Lactobacillus sp. [1]; Experiment C, 5 mM, 168 h
  Glucose: 84.8 g/L
Lactobacillus sp. [1]; Experiment C, 5 mM, 336 h
  Glucose: 83.4 g/L
Lactobacillus sp. [1]; Experiment C, 5 mM, 508 h
  Glucose: 77.1 g/L
Lactobacillus sp. [1]; Experiment C, 10 mM, 0 h
  Glucose: 84.8 g/L
Lactobacillus sp. [1]; Experiment C, 10 mM, 168 h
  Glucose: 81.7 g/L
Lactobacillus sp. [1]; Experiment C, 10 mM, 336 h
  Glucose: 81.9 g/L
Lactobacillus sp. [1]; Experiment C, 10 mM, 508 h
  Glucose: 75.5 g/L
Lactobacillus sp. [1]; Experiment C, 20 mM, 0 h
  Glucose: 85.9 g/L
Lactobacillus sp. [1]; Experiment C, 20 mM, 168 h
  Glucose: 82.3 g/L
Lactobacillus sp. [1]; Experiment C, 20 mM, 336 h
  Glucose: 83.5 g/L
Lactobacillus sp. [1]; Experiment C, 20 mM, 508 h
  Glucose: 79.5 g/L
Lactobacillus sp. [1]; Experiment C, 40 mM, 0 h
  Glucose: 80.9 g/L
Lactobacillus sp. [1]; Experiment C, 40 mM, 168 h
  Glucose: 81.0 g/L
Lactobacillus sp. [1]; Experiment C, 40 mM, 336 h
  Glucose: 85.6 g/L
Lactobacillus sp. [1]; Experiment C, 40 mM, 508 h
  Glucose: 82.6 g/L
Lactobacillus sp. [2]; 5, 10, 20 and 40 mM, three weeks of incubation
  growth of Lactobacillus sp.: inhibited the growth
Lactobacillus sp. [2]; Experiment A, 5 mM, 0 h
  Glucose: 83.3 g/L
Lactobacillus sp. [2]; Experiment A, 5 mM, 172 h
  Glucose: 84.0 g/L
Lactobacillus sp. [2]; Experiment A, 5 mM, 340 h
  Glucose: 83.5 g/L
Lactobacillus sp. [2]; Experiment A, 5 mM, 510 h
  Glucose: 83.2 g/L
Lactobacillus sp. [2]; Experiment A, 10 mM, 0 h
  Glucose: 84.1 g/L
Lactobacillus sp. [2]; Experiment A, 10 mM, 172 h
  Glucose: 85.3 g/L
Lactobacillus sp. [2]; Experiment A, 10 mM, 340 h
  Glucose: 82.8 g/L
Lactobacillus sp. [2]; Experiment A, 10 mM, 510 h
  Glucose: 82.2 g/L
Lactobacillus sp. [2]; Experiment A, 20 mM, 0 h
  Glucose: 83.7 g/L
Lactobacillus sp. [2]; Experiment A, 20 mM, 172 h
  Glucose: 85.6 g/L
Lactobacillus sp. [2]; Experiment A, 20 mM, 340 h
  Glucose: 86.8 g/L
Lactobacillus sp. [2]; Experiment A, 20 mM, 510 h
  Glucose: 84.7 g/L
Lactobacillus sp. [2]; Experiment A, 40 mM, 0 h
  Glucose: 81.5 g/L
Lactobacillus sp. [2]; Experiment A, 40 mM, 172 h
  Glucose: 83.2 g/L
Lactobacillus sp. [2]; Experiment A, 40 mM, 340 h
  Glucose: 83.2 g/L
Lactobacillus sp. [2]; Experiment A, 40 mM, 510 h
  Glucose: 83.6 g/L
Lactobacillus sp. [2]; Experiment A, flasks with added sodium sulfite, three weeks
  glucose consumption: no glucose consumption
Lactobacillus sp. [2]; Experiment B (inoculated at 0 h and 336 h), 5 mM or more, 21 days
  bacterial growth: No signs of bacterial growth
Lactobacillus sp. [2]; Experiment B, 5 mM, 0 h
  Glucose: 82.3 g/L
Lactobacillus sp. [2]; Experiment B, 5 mM, 172 h
  Glucose: 82.9 g/L
Lactobacillus sp. [2]; Experiment B, 5 mM, 340 h
  Glucose: 82.6 g/L
Lactobacillus sp. [2]; Experiment B, 5 mM, 510 h
  Glucose: 78.3 g/L
Lactobacillus sp. [2]; Experiment B, 10 mM, 0 h
  Glucose: 82.9 g/L
Lactobacillus sp. [2]; Experiment B, 10 mM, 172 h
  Glucose: 84.3 g/L
Lactobacillus sp. [2]; Experiment B, 10 mM, 340 h
  Glucose: 81.5 g/L
Lactobacillus sp. [2]; Experiment B, 10 mM, 510 h
  Glucose: 80.8 g/L
Lactobacillus sp. [2]; Experiment B, 20 mM, 0 h
  Glucose: 82.8 g/L
Lactobacillus sp. [2]; Experiment B, 20 mM, 172 h
  Glucose: 74.7 g/L
Lactobacillus sp. [2]; Experiment B, 20 mM, 340 h
  Glucose: 86.0 g/L
Lactobacillus sp. [2]; Experiment B, 20 mM, 510 h
  Glucose: 83.3 g/L
Lactobacillus sp. [2]; Experiment B, 40 mM, 0 h
  Glucose: 80.2 g/L
Lactobacillus sp. [2]; Experiment B, 40 mM, 172 h
  Glucose: 82.1 g/L
Lactobacillus sp. [2]; Experiment B, 40 mM, 340 h
  Glucose: 82.0 g/L
Lactobacillus sp. [2]; Experiment B, 40 mM, 510 h
  Glucose: 82.5 g/L
Lactobacillus sp. [2]; Experiment C (14 days storage at room temperature, then inoculated), concentrations above 5 mM
  bacterial growth: no growth was observed
Lactobacillus sp. [2]; Experiment C, 5 mM, 0 h
  Glucose: 81.2 g/L
Lactobacillus sp. [2]; Experiment C, 5 mM, 172 h
  Glucose: 81.6 g/L
Lactobacillus sp. [2]; Experiment C, 5 mM, 340 h
  Glucose: 85.5 g/L
Lactobacillus sp. [2]; Experiment C, 5 mM, 510 h
  Glucose: 82.0 g/L
Lactobacillus sp. [2]; Experiment C, 10 mM, 0 h
  Glucose: 82.2 g/L
Lactobacillus sp. [2]; Experiment C, 10 mM, 172 h
  Glucose: 81.8 g/L
Lactobacillus sp. [2]; Experiment C, 10 mM, 340 h
  Glucose: 84.0 g/L
Lactobacillus sp. [2]; Experiment C, 10 mM, 510 h
  Glucose: 82.4 g/L
Lactobacillus sp. [2]; Experiment C, 20 mM, 0 h
  Glucose: 80.8 g/L
Lactobacillus sp. [2]; Experiment C, 20 mM, 172 h
  Glucose: 80.3 g/L
Lactobacillus sp. [2]; Experiment C, 20 mM, 340 h
  Glucose: 84.5 g/L
Lactobacillus sp. [2]; Experiment C, 20 mM, 510 h
  Glucose: 83.3 g/L
Lactobacillus sp. [2]; Experiment C, 40 mM, 0 h
  Glucose: 82.0 g/L
Lactobacillus sp. [2]; Experiment C, 40 mM, 172 h
  Glucose: 81.6 g/L
Lactobacillus sp. [2]; Experiment C, 40 mM, 340 h
  Glucose: 86.2 g/L
Lactobacillus sp. [2]; Experiment C, 40 mM, 510 h
  Glucose: 82.0 g/L
